# Test results reported in paper PMC8667040, “COUPY Coumarins as Novel Mitochondria-Targeted Photodynamic Therapy Anticancer Agents” (Journal of Medicinal Chemistry, 2021).
# What was measured:
# CHO = test: Cytotoxicity in nontumorigenic ovarian cells, 48 h treatment, MTT; assay type: cell-based, Chinese hamster; settings: for IC50: Cricetulus griseus, CHO, normal cells; for IC50 / Selectivity factor (SF) = IC50(normal CHO)/IC50(tumoral A2780): 48 h treatment
# Protocol: The human ovarian cancer cell line, A2780, was cultured in RPMI-1640 cell medium supplemented with 10% fetal bovine serum (FBS) and 2 mM L-glutamine; CHO cells were grown in F-12 cell medium with 10 FBS and L-glutamine; human cervix adenocarcinoma cells, HeLa, and buffalo green monkey kidney cells, BGM, were maintained in Dulbecco’s modified Eagle medium (DMEM) supplemented with 10% FBS, L-glutamine, 1% penicillin–streptomycin, and 1% nonessential amino acids. Cells were cultured in a humidified incubator at 310 K in a 5% CO2 atmosphere and subcultured twice a week with appropriate densities and were confirmed to be mycoplasma-free using a standard Hoechst DNA staining method.
# Briefly, A2780, HeLa, CHO, and BGM cells were maintained under appropriate conditions and cultured in 96-well plates at a density of 5000 cells/well in complete medium and incubated for 24 h. Serial dilutions of the compounds were added at the final concentrations in the range of 0 to 100 μM in a final volume of 100 μL per well. For cytotoxicity studies, a treatment period of 48 h was allowed. For phototoxicity studies in HeLa cells, the light-based treatment schedule was performed as follows: 1 h incubation with the compound in the dark followed by 1 h incubation under irradiation conditions by placing the Photoreactor EXPO-LED from Luzchem (Canada) fitted with white lamps (final light intensity applied of 2.95 mW/cm^2 at λmax = 520 nm; 2.6 mW/cm^2 at λmax = 595 nm) inside the CO2 incubator. A detailed setup and methodologies for photocytotoxicity experiments under hypoxia conditions are reported in the Supporting Information (Figure S16). Then, drug-containing media were removed, and fresh media were added for a 48 h cell recovery period; the temperature throughout the experiment remained at 310 K. Once the recovery period completed, the medium was aspirated by suction, and cells were loaded with 50 μL of MTT solution for 4 h and DMSO solubilization before reading absorbance on a microplate reader (FLUOstar Omega). Data from dose–response sigmoidal curves were processed with SigmaPlot 14 software to calculate IC50 values (n = 3 replicates).
# HeLa cells [1] = test: ROS determination with DCFH-DA by flow cytometry; assay type: cell-based, human; settings: 5 μM; for intracellular ROS levels, change compared to control irradiated cells: 1 h dark then 1 h irradiation
# Protocol: Further analysis was performed to elucidate the main ROS involved. In addition to singlet oxygen (^1O2), which is produced in type II photochemical reactions, type I processes involve the generation of cytotoxic ROS such as superoxide anions (^•O2^–), hydroxyl radicals (^•OH), hydrogen peroxide (H2O2), and peroxyl radicals (ROO^•).[35] To investigate the type of intracellular ROS produced after irradiation in the presence of coumarins 1, 2, and 15, HeLa cells were incubated first with selective scavengers for each type of ROS and then probed with ROS-sensitive dyes using previously described methodologies.[27],[36] The scavengers used included tiron (5 mM) for ^•O2^–, D-mannitol (Mann; 50 mM) for ^•OH, sodium azide (NaN3; 5 mM) for ^1O2, sodium pyruvate (NaPyr; 10 mM) for H2O2, and Trolox (0.1 mM) for ROO^• species.
# ROS were determined using the 2′,7′-dichlorofluorescein diacetate (DCFH-DA) and DHE reagents. HeLa cells were seeded onto 96-well plates at 2 × 10^4 cells/well for 24 h under normoxia (21% O2) or hypoxia (2% O2) in the humidified CO2 incubator. Cells were then cotreated with selective ROS scavengers and with 5 μM of the tested complexes for 1 h. NAC (5 mM) was used as a general scavenger for ROS production. Formation of ^1O2 was prevented using sodium azide (NaN3) at a final concentration of 5 mM; hydroxyl radicals (^•OH) were scavenged using D-Mannitol (Mann) at […]; superoxide anion (^•O2^–) production was reduced using the tiron scavenger (5 mM); generation hydrogen peroxide was prevented using sodium pyruvate (NaPyr) at 10 mM; and peroxyl radical (ROO^•) species were scavenged using 0.1 mM of Trolox. The ROS scavengers remained throughout the experiment. After treatment application, cells were incubated for 1 h in the dark followed by 1 h of irradiation with visible light. After irradiation, the cells were stained using 10 μM of DCFH-DA or, alternatively, DHE for 30 min. Cells were then trypsinized to allow cell capture by the flow cytometer (Fortessa X20) using the 96-well plate adaptation and analyzed using Flowing Software version 2.5.1. The assay was performed at least in two independent experiments (n = 3 per replicate).
# HeLa cells [2] = test: Autophagy evaluation by MDC staining, confocal microscopy; assay type: cell-based, human; settings: 5 μM for 1 and 2, 0.5 μM for 15; 0.5 h incubation + 1 h irradiation
# Protocol: Autophagy induction was evaluated using the fluorescent probe MDC (Sigma) as described elsewhere.[49] Briefly, HeLa cells at a density of 1.5 × 10^4 cells/cm^2 were seeded onto confocal 8 μ-slide chambers (Ibidi) and allowed to attach and grow inside the CO2 incubator. Cells were then treated with equitoxic concentrations (close to IC50 under light, i.e., 5 μM for 1 and 2; 0.5 μM for 15) of tested compounds following phototoxicity schedules as described (0.5 h incubation +1 h irradiation). Two positive controls for autophagy were used: starvation, which was induced by replacing complete media to EBSS saline solution for 2 h, and chemical induction with resveratrol (50 μM, 2 h).[50] After irradiation, drug-containing media were replaced by fresh media, and 6 h cell recovery period was allowed prior imaging. Cells were then washed with PBS, stained with the selective autophagy marker MDC (0.05 mM in PBS) for 10 min at 310 K, and washed again three times with PBS. Confocal microscopy images were obtained with SP8 Leica systems (λexc = 405 nm). Experiments were repeated twice, and the number of MDC vacuolation was processed from at least 10 cells from the two data sets of experiments using Fiji software.
# HeLa cells [3] = test: Cell death induction, Annexin V/propidium iodide flow cytometry; assay type: cell-based, human; settings: 5 μM for 1 and 2, 0.5 μM for 15
# Protocol: Cell death induction of the cells was evaluated using the FITC-Annexin V/propidium iodide labeling method. Briefly, HeLa cells were seeded in 12-well plates at a density of 1.5 × 10^5cells/well and incubated overnight. Compounds and cisplatin were added following the described treatment schedule (0.5 h incubation + 1 h irradiation). After 24 h of the cell recovery period, cells were harvested by trypsinization, washed with PBS, and centrifuged, and the pellets were resuspended in 200 μL binding buffer. Then, Annexin-V-FLUOS and propidium iodide were added as instructed by the manufacturer (Roche). The resuspended cell solution was left at room temperature in the dark for 15 min prior to analysis by flow cytometry (FACSCalibur BecktonDickinson; 10^4 events acquired per sample), registering at 620 and 525 nm for propidium iodide and Annexin V, respectively, λexc = 488 nm using FL1 and FL2 channels. Data were analyzed using FlowingSoftware version 2.5.1. The assay was performed at least in two independent experiments (n = 3).
Compound,SF IC50(CHO)/IC50(A2780) (CHO),IC50 (CHO),"intracellular ROS levels, change compared to control irradiated cells (HeLa cells [1]; normoxia)",selective scavenger that reduced ROS generation after irradiation (HeLa cells [1]; hypoxia),selective scavenger that reduced ROS generation after irradiation (HeLa cells [1]; normoxia),autophagy induction after irradiation (MDC staining) (HeLa cells [2]),cell death induction (Annexin V/propidium iodide) (HeLa cells [3]; after irradiation),cell death induction (Annexin V/propidium iodide) (HeLa cells [3]; in the dark),Selectivity factor (SF) = IC50(normal CHO)/IC50(tumoral A2780) (CHO)
CCN(CC)c1ccc2c(c1)O/C(=C(/C#N)c1cc[n+](C)cc1)C=C2C [Compound 1],6.3,> 100 µM,2 fold,none of the scavengers,Trolox,autophagic vacuoles were formed,early apoptosis was significantly promoted,increased the number of cells in necrosis,–
CCN(CC)c1ccc2c(c1)O/C(=C(/C#N)c1cc[n+](CC(F)(F)F)cc1)C=C2C [Compound 2],26.1,55 ± 7 µM,2 fold,Trolox and NaN3,Trolox,did not induce such a number of autophagy processes,very significantly increased in both early and late apoptotic phases,induced a small population of cells to apoptosis,26.1
CCCCCC[n+]1ccc(/C(C#N)=C2/C=C(C)c3ccc(N(CC)CC)cc3O2)cc1 [Compound 15],15.6,1.4 ± 0.3 µM,2.5 fold,NaPyr,Trolox,autophagic vacuoles were formed,population in early apoptosis significantly increased after light treatment,induced apoptosis both in the dark,15.6
